Laboratory results from PMC9024893, “1,2,4-Trioxolane and 1,2,4,5-Tetraoxane Endoperoxides against Old-World Leishmania Parasites: In Vitro Activity and Mode of Action” (Pharmaceuticals, 2022).
Where two headings read alike, the source gives them in different places.

How the values were obtained:
[1] = Cytotoxicity assay (MTT), PMA-differentiated THP-1 cell line; assay type: cell-based; details: human
Experimental: Adherent BALB/c mouse macrophage cell line J774A.1 (ATCC® TIB 67™) and suspension human acute monocytic leukemic cell line THP-1 (ATCC® TIB-202™) were purchased from DSMZ, Germany were cultured and maintained in DMEM medium (Gibco) and RPMI 1640 (Sigma), respectively, supplemented with 10% FBS, 1% penicillin-streptomycin (Sigma) and L-glutamine 200 mM (Sigma), at 37 °C, 5% CO2.
Cell lines J774A.1 and THP-1 were used to estimate CC50 of the peroxides. Cells were plated in 96-well flat bottom culture plates (VWR) at 5 × 10^5 cells/mL. The monocytic cell line THP-1 was differentiated in RPMI medium with phorbol myristate acetate (PMA) (25 ng/mL; Sigma) for 24 h, followed by a washing step with RPMI medium. Six serial concentrations of the compounds (Table 3) were added in four replicates and the plates were incubated at 37 °C ± 1 °C, 5% CO2 for 48 h. An untreated control (cells in DMEM or RPMI medium plus 0.5% DMSO as vehicle) and blank (medium alone) were plated out in quadruplicate. After the incubation period, 20 µL/well of MTT [3-(4,5-dimethylthiazol-2-yl)-2,5-diphenyltetrazolium bromide] was added to a final concentration of 5 µg/mL in 1× phosphate-buffered saline (PBS, Merck), with an additional 4 h incubation at 36 °C, as previously described. The formazan salts were resuspended in 2-propanol (Merck) and the cell viability was determined by measuring absorbance with a Synergy ™HTX Multi Mode Microplate Reader at 595 nm (Dynex Technologies). The CC50 values were calculated fitting the data as a non-linear regression with variable slope using a dose-response inhibitory model, in the GraphPad Prism V 8.0 program. Each compound was tested in three independent assays.

[2] = system: L. donovani BD14 intracellular amastigotes; assay: Intracellular amastigotes assay in J774A.1 macrophages, L. donovani; assay type: cell-based; details: Leishmania donovani, J774.A1; 48 h incubation, J774A.1 host cells; read-out: IC50 ± SD, L. donovani intracellular amastigotes
Experimental: The intracellular assay using the macrophage J774A.1 cell line was performed with the compounds that presented best SI on the promastigote’s susceptibility assay. J774A.1 cells were adjusted to 2.5 × 10^5 cells/mL in supplemented DMEM medium. 200 μL/well of the cell suspension was placed in 16 well Lab Tek culture glass slides (Nunc), and incubated at 37 °C ± 1 °C, 5% CO2, for 3 h, to enable the cells to adhere to the slides. After a washing step with DMEM to discard non-attached cells, the cells were infected with 2.5 × 10^6 cells/mL promastigotes in a 10:1 parasite-host cell proportion for 24 h. Compounds and control drugs were added in two replicates of six serial concentrations (Table 3). As negative control, macrophages were cultivated in medium and DMSO, as vehicle solution (0.5% v/v). Slides were incubated for 48 h at the same temperature. After a washing step with 1× PBS (Sigma), slides were fixed and stained, and the infection index was calculated according to [34] by counting the number of intracellular amastigotes per 100 macrophages, in treated and untreated cells. Two independent experiments were performed to determine the amastigotes IC50 of each compound, which was calculated by fitting the data as a non-linear regression with variable slope using a dose-response inhibitory model, in the GraphPad Prism V 8.0 program. SI was determined as described above.

[3] = system: L. infantum promastigotes; assay: Flow cytometry detection of phosphatidylserine externalization (Annexin V/PI); assay type: cell-based, Leishmania infantum; details: 2 × IC50, 48 h, mean ± SEM
Experimental: (§1) The L. infantum strain (MHOM/PT/1988/IMT151) was chosen for the cytometry analysis and promastigotes at a concentration of 1 × 10^7 parasites/mL were tested against the three compounds evaluated in the intracellular amastigotes assay (LC132, LC137 and LC138). Flow cytometry analysis were performed in a CytoFlex flow cytometer (Beckman Coulter), at an excitation wavelength of 488 nm (blue laser). Data acquisition were collected and registered using channels FL1 (flurescein isothiocyanate, FITC) with a BP filter (525 ± 40 nm) for Fluorescein and FL2 (IP) with a BP filter (570 ± 20 nm) for propidium iodide (PI) and 10,000 total events per sample were analysed using CytExpert v2.0.0.153 software. Samples were analysed in triplicates and two to three independent experiments were performed. Values are expressed as a percentage of cells for a given marker, relatively to the number of cells analysed ± standard error of mean (SEM).
To distinguish apoptotic cell death from necrotic cell death, cells were counterstained with PI, a non-permeable stain with affinity for nucleic acids, as it selectively enters necrotic cells. […] After adding 400 μL of 1 × Binding Buffer, samples were analysed in Cytoflex flow cytometer. Annexin V-FITC and PI were measured in FL1 and FL2 channels, respectively. […]

[4] = system: L. infantum promastigotes; assay: Flow cytometry analysis of mitochondrial membrane potential (JC-1); assay type: cell-based, Leishmania infantum; details: 24 h
Experimental: as §1
Mitochondrial damage was evaluated through the analysis of the mitochondrial membrane potential with MitoProbe™ JC-1 Assay Kit for Flow Cytometry (Molecular Probes, Invitrogen). Treated L. infantum promastigotes were incubated with IC50 and 2 × IC50 of the tested compounds and amphotericin B for 24 h, at 24 °C ± 1 °C. […] Cells were analysed by flow cytometry. […]

Q: Which CC50 at 48 h [1] does the source give for `C[C@@H]1[C@H](O)[C@@H](C)/C=C/C=C/C=C/C=C/C=C/C=C/C=C/[C@H](O[C@@H]2O[C@H](C)[C@@H](O)[C@H](N)[C@@H]2O)C[C@@H]2O[C@](O)(C[C@@H](O)C[C@@H](O)[C@H](O)CC[C@@H](O)C[C@@H](O)CC(=O)O[C@H]1C)C[C@H](O)[C@H]2C(=O)O` [AmB, amphotericin B, reference compound] here?
A: 23.2 ± 3 µM

Q: What about the IC50 [2] of the same compound?
A: 0.1 µM

Q: And the “late apoptosis (Annexin+/PI+) cell population” value [3]?
A: 17.5 ± 0.9%

Q: And the “population percentage of JC-1 aggregates” value ([4]; 2 × IC50 concentration)?
A: 69.1%

Q: What about the “population percentage of JC-1 aggregates” value ([4]; IC50 concentration) of the same compound?
A: 64.9%

Q: What does the source list for `CCOC(=O)C1CCC2(CC1)OOC1(OO2)C2CC3CC(C2)CC1C3` (centres unmarked) [LC138]?
A: CC50 at 48 h ([1]; PMA-differentiated THP-1 cells, 48 h incubation, MTT, read-out: CC50 ± SD, THP-1 Cell Line): 2839 ± 15 µM; IC50 [2]: 426 ± 25.5 µM; late apoptosis (Annexin+/PI+) cell population [3]: 20.5 ± 4.2%
